Measurements from ChEMBL document CHEMBL1154288, “The discovery and unique pharmacological profile of RO4938581 and RO4882224 as potent and selective GABAA alpha5 inverse agonists for the treatment of cognitive dysfunction” (Bioorg Med Chem Lett, 2009).
In brackets after ≈: the same amount, converted by molar mass.

Tested on: not listed separately
Assay: Lipophilicity, log D at pH 7.4
Assay type: physicochemical
Details: buffer

Row | SMILES | logD
1 | Cc1ncn2c1Cn1ncnc1-c1cc(Br)ccc1-2 | 1.6

Target: GABA-A receptor; alpha-5/beta-3/gamma-2 (Homo sapiens) (UniProt P18507+P28472+P31644)
Assay: Inverse agonist activity at human GABA alpha-5-beta-3-gamma-2 receptor expressed in Xenopus laevis oocyts by electrophysiology assay relative to GABA
Assay type: functional
Details: not given

Row | SMILES | Efficacy [%]
2 | COc1ccc2c(c1)-c1ncnn1Cc1c(C)ncn1-2 | -45
3 | Cc1ncn2c1Cn1ncnc1-c1cc(C(F)F)ccc1-2 | -45
4 | CS(=O)(=O)Nc1ccc2c(c1)-c1ncnn1Cc1c(Cl)ncn1-2 | -36
5 | Cc1ncn2c1Cn1ncnc1-c1cc(C(F)(F)F)ccc1-2 | -32
6 | Brc1ccc2c(c1)-c1ncnn1Cc1c(-c3cccs3)ncn1-2 | -10
7 | Cc1ncn2c1Cn1ncnc1-c1c(F)cccc1-2 | -42
8 | Cn1nccc1-c1ncn2c1Cn1ncnc1-c1cc(Br)ccc1-2 | -33
9 | Cc1ncn2c1Cn1ncnc1-c1cc(OC(F)F)ccc1-2 | -43
10 | Cc1ncn2c1Cn1ncnc1-c1cc(I)ccc1-2 | -57
11 | Cc1ccc2c(c1)-c1ncnn1Cc1c(C)ncn1-2 | -37
12 | Cc1ncn2c1Cn1ncnc1-c1cccc(F)c1-2 | -50
13 | Cc1ncn2c1Cn1ncnc1-c1c(Cl)cccc1-2 | -45
14 | O=C(Nc1ccc2c(c1)-c1ncnn1Cc1c(Cl)ncn1-2)C1CC1 | -48

Tested on: not listed separately
Assay: Selectivity ratio of Ki for cloned human GABA alpha-1-beta-3-gamma-2 receptor expressed in insect SF9 cells to Ki for cloned human GABA alpha-5-beta-3-gamma-2 receptor expressed in insect SF9 cells
Details: not given

Row | SMILES | Ratio Ki
15 | c1ccc2c(c1)-c1ncnn1Cc1cncn1-2 | 15

Tested on: not listed separately
Assay: Selectivity ratio of Ki for cloned human GABA alpha-2-beta-3-gamma-2 receptor expressed in insect SF9 cells to Ki for cloned human GABA alpha-5-beta-3-gamma-2 receptor expressed in insect SF9 cells
Details: not given

Row | SMILES | Ratio Ki
16 | c1ccc2c(c1)-c1ncnn1Cc1cncn1-2 | 0.05

Tested on: not listed separately
Assay: Permeability by PAMPA
Assay type: ADME
Details: read-out: permeability

Row | SMILES | Papp [×10⁻⁶ cm/s]
17 | Cc1ncn2c1Cn1ncnc1-c1cc(Br)ccc1-2 | 7.6

Target: GABA A receptor alpha-5/beta-3/gamma-2 (Rattus norvegicus) (UniProt P18508+P19969+P63079)
Assay: Inverse agonist activity at rat GABA alpha-5-beta-3-gamma-2 receptor expressed in HEK293 cells by electrophysiology assay relative to GABA
Assay type: functional, cell-based
Details: not given

Row | SMILES | Efficacy [%]
18 | CCCc1ncn2c1Cn1ncnc1-c1cc(Cl)ccc1-2 | -35
19 | FC(F)c1ccc2c(c1)-c1ncnn1Cc1c(Cl)ncn1-2 | -42
20 | Cc1ncn2c1Cn1ncnc1-c1cc(Br)ccc1-2 | -42
21 | c1ccc2c(c1)-c1ncnn1Cc1cncn1-2 | -37

Tested on: not listed separately
Assay: Selectivity ratio of Ki for cloned human GABA alpha-3-beta-3-gamma-2 receptor expressed in insect SF9 cells to Ki for cloned human GABA alpha-5-beta-3-gamma-2 receptor expressed in insect SF9 cells
Details: not given

Row | SMILES | Ratio Ki
22 | c1ccc2c(c1)-c1ncnn1Cc1cncn1-2 | 0.06

Tested on: not listed separately
Assay: Oral bioavailability in rat
Assay type: ADME, organism-based
Details: in vivo

Row | SMILES | bioavailability [%]
23 | Cc1ncn2c1Cn1ncnc1-c1cc(Br)ccc1-2 | 80

Tested on: not listed separately
Assay: Clearance in rat
Assay type: ADME, organism-based
Details: in vivo

Row | SMILES | clearance [mL/min/kg]
24 | Cc1ncn2c1Cn1ncnc1-c1cc(Br)ccc1-2 | 0.6

Tested on: HEK293
Assay: Selectivity ratio of Ki for cloned human GABA alpha-1-beta-3-gamma-2 receptor expressed in HEK293 cells to Ki for cloned human GABA alpha-5-beta-3-gamma-2 receptor expressed in HEK293 cells
Assay type: cell-based
Details: not given

Row | SMILES | Ratio Ki
25 | CCCc1ncn2c1Cn1ncnc1-c1cc(Cl)ccc1-2 | 3
26 | FC(F)c1ccc2c(c1)-c1ncnn1Cc1c(Cl)ncn1-2 | 19
27 | COc1ccc2c(c1)-c1ncnn1Cc1c(C)ncn1-2 | 11
28 | Cc1ncn2c1Cn1ncnc1-c1cc(Br)ccc1-2 | 22
29 | Cc1ncn2c1Cn1ncnc1-c1cc(C(F)F)ccc1-2 | 29
30 | CS(=O)(=O)Nc1ccc2c(c1)-c1ncnn1Cc1c(Cl)ncn1-2 | 7
31 | Cc1ncn2c1Cn1ncnc1-c1cc(C(F)(F)F)ccc1-2 | 29
32 | Brc1ccc2c(c1)-c1ncnn1Cc1c(-c3cccs3)ncn1-2 | 27
33 | Cc1ncn2c1Cn1ncnc1-c1c(F)cccc1-2 | 5
34 | Cn1nccc1-c1ncn2c1Cn1ncnc1-c1cc(Br)ccc1-2 | 26
35 | Cc1ncn2c1Cn1ncnc1-c1cc(OC(F)F)ccc1-2 | 58
36 | Cc1ncn2c1Cn1ncnc1-c1cc(I)ccc1-2 | 42
37 | Cc1ccc2c(c1)-c1ncnn1Cc1c(C)ncn1-2 | 11
38 | Cc1ncn2c1Cn1ncnc1-c1cccc(F)c1-2 | 12
39 | Cc1ncn2c1Cn1ncnc1-c1c(Cl)cccc1-2 | 0.6
40 | O=C(Nc1ccc2c(c1)-c1ncnn1Cc1c(Cl)ncn1-2)C1CC1 | 2

Target: GABA-A receptor; alpha-1/beta-2/gamma-2 (Rattus norvegicus) (UniProt P18508+P62813+P63138)
Assay: Inverse agonist activity at rat GABA alpha-1-beta-3-gamma-2 receptor expressed in HEK293 cells by electrophysiology assay relative to GABA
Assay type: functional, cell-based
Details: not given

Row | SMILES | Efficacy [%]
41 | Cc1ncn2c1Cn1ncnc1-c1cc(Br)ccc1-2 | -9

Tested on: not listed separately
Assay: Half life in rat
Assay type: ADME, organism-based
Details: in vivo

Row | SMILES | half-life [h]
42 | Cc1ncn2c1Cn1ncnc1-c1cc(Br)ccc1-2 | 7.7

Tested on: not listed separately
Assay: Volume of distribution at steady state in rat
Assay type: ADME, organism-based
Details: in vivo, read-out: Vdss

Row | SMILES | Vd [L/kg]
43 | Cc1ncn2c1Cn1ncnc1-c1cc(Br)ccc1-2 | 0.4

Tested on: not listed separately
Assay: Solubility by lypophlisation solubility assay
Assay type: physicochemical
Details: not given

Row | SMILES | solubility [µg/mL]
44 | Cc1ncn2c1Cn1ncnc1-c1cc(Br)ccc1-2 | 78 (≈ 247 µM)

Tested on: HEK293
Assay: Selectivity ratio of Ki for cloned human GABA alpha-2-beta-3-gamma-2 receptor expressed in HEK293 cells to Ki for cloned human GABA alpha-5-beta-3-gamma-2 receptor expressed in HEK293 cells
Assay type: cell-based
Details: not given

Row | SMILES | Ratio Ki
45 | CCCc1ncn2c1Cn1ncnc1-c1cc(Cl)ccc1-2 | 5
46 | FC(F)c1ccc2c(c1)-c1ncnn1Cc1c(Cl)ncn1-2 | 36
47 | COc1ccc2c(c1)-c1ncnn1Cc1c(C)ncn1-2 | 31
48 | Cc1ncn2c1Cn1ncnc1-c1cc(Br)ccc1-2 | 30
49 | Cc1ncn2c1Cn1ncnc1-c1cc(C(F)F)ccc1-2 | 62
50 | CS(=O)(=O)Nc1ccc2c(c1)-c1ncnn1Cc1c(Cl)ncn1-2 | 5
51 | Cc1ncn2c1Cn1ncnc1-c1cc(C(F)(F)F)ccc1-2 | 78
52 | Brc1ccc2c(c1)-c1ncnn1Cc1c(-c3cccs3)ncn1-2 | 22
53 | Cc1ncn2c1Cn1ncnc1-c1c(F)cccc1-2 | 13
54 | Cn1nccc1-c1ncn2c1Cn1ncnc1-c1cc(Br)ccc1-2 | 35
55 | Cc1ncn2c1Cn1ncnc1-c1cc(OC(F)F)ccc1-2 | 53
56 | Cc1ncn2c1Cn1ncnc1-c1cc(I)ccc1-2 | 60
57 | Cc1ccc2c(c1)-c1ncnn1Cc1c(C)ncn1-2 | 34
58 | Cc1ncn2c1Cn1ncnc1-c1cccc(F)c1-2 | 12
59 | Cc1ncn2c1Cn1ncnc1-c1c(Cl)cccc1-2 | 2
60 | O=C(Nc1ccc2c(c1)-c1ncnn1Cc1c(Cl)ncn1-2)C1CC1 | 6

Target: T1, GABA-A receptor; alpha-5/beta-3/gamma-2 (Homo sapiens, UniProt P18507+P28472+P31644)
T1 sequence (P18507 whole entry): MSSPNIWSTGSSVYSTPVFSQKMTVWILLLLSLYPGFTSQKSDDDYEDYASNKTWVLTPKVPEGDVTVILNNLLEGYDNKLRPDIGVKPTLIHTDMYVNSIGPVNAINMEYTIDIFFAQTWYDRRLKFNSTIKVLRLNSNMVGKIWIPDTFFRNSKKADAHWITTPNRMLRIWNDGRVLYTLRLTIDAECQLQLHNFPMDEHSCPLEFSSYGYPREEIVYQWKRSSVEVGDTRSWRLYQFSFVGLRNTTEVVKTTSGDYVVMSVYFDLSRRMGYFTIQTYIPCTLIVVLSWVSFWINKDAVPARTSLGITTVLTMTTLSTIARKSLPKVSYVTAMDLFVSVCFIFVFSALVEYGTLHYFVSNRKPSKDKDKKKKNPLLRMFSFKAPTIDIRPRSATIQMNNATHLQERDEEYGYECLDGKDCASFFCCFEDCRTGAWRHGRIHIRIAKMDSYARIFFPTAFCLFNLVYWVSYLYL
T1 sequence (P28472 whole entry): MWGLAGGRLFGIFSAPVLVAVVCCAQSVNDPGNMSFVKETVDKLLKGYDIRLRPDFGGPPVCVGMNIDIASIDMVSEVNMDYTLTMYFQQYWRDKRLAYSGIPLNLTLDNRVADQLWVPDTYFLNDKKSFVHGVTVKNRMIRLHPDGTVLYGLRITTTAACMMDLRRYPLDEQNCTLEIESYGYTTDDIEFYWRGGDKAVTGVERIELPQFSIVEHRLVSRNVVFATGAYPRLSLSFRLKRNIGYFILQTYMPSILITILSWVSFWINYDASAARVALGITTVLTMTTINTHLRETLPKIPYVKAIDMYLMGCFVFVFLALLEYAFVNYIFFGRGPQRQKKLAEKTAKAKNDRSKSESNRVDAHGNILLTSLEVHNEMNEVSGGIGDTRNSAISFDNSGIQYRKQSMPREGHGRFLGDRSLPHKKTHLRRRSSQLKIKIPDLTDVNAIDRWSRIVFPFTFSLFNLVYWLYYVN
T1 sequence (P31644 whole entry): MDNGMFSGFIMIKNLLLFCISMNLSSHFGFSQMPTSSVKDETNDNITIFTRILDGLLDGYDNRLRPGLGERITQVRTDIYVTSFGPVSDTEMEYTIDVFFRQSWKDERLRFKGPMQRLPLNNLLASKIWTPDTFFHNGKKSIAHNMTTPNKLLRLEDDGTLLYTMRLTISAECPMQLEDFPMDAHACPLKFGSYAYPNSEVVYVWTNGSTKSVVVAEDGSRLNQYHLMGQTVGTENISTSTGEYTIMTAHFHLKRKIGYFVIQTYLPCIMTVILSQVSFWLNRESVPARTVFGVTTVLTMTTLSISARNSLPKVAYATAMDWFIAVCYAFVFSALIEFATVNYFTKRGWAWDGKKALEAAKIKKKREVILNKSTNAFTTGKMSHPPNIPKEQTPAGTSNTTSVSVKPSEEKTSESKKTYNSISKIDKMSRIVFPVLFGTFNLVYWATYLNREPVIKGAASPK
Assay: Displacement of [3H]Flumazenil from cloned human GABA alpha-5-beta-3-gamma-2 receptor expressed in HEK293 cells
Assay type: cell-based
Details: not given

Row | SMILES | Ki [nM]
61 | CCCc1ncn2c1Cn1ncnc1-c1cc(Cl)ccc1-2 | 1.6
62 | FC(F)c1ccc2c(c1)-c1ncnn1Cc1c(Cl)ncn1-2 | 1.1
63 | COc1ccc2c(c1)-c1ncnn1Cc1c(C)ncn1-2 | 7.7
64 | Cc1ncn2c1Cn1ncnc1-c1cc(Br)ccc1-2 | 6.2
65 | Cc1ncn2c1Cn1ncnc1-c1cc(C(F)F)ccc1-2 | 2.2
66 | CS(=O)(=O)Nc1ccc2c(c1)-c1ncnn1Cc1c(Cl)ncn1-2 | 54
67 | Cc1ncn2c1Cn1ncnc1-c1cc(C(F)(F)F)ccc1-2 | 18
68 | Brc1ccc2c(c1)-c1ncnn1Cc1c(-c3cccs3)ncn1-2 | 4
69 | Cc1ncn2c1Cn1ncnc1-c1c(F)cccc1-2 | 1
70 | Cn1nccc1-c1ncn2c1Cn1ncnc1-c1cc(Br)ccc1-2 | 9.7
71 | Cc1ncn2c1Cn1ncnc1-c1cc(OC(F)F)ccc1-2 | 1.8
72 | Cc1ncn2c1Cn1ncnc1-c1cc(I)ccc1-2 | 4.4
73 | Cc1ccc2c(c1)-c1ncnn1Cc1c(C)ncn1-2 | 9.2
74 | Cc1ncn2c1Cn1ncnc1-c1cccc(F)c1-2 | 64
75 | Cc1ncn2c1Cn1ncnc1-c1c(Cl)cccc1-2 | 1.2
76 | O=C(Nc1ccc2c(c1)-c1ncnn1Cc1c(Cl)ncn1-2)C1CC1 | 16

Tested on: HEK293
Assay: Selectivity ratio of Ki for cloned human GABA alpha-3-beta-3-gamma-2 receptor expressed in HEK293 cells to Ki for cloned human GABA alpha-5-beta-3-gamma-2 receptor expressed in HEK293 cells
Assay type: cell-based
Details: not given

Row | SMILES | Ratio Ki
77 | CCCc1ncn2c1Cn1ncnc1-c1cc(Cl)ccc1-2 | 3
78 | FC(F)c1ccc2c(c1)-c1ncnn1Cc1c(Cl)ncn1-2 | 15
79 | COc1ccc2c(c1)-c1ncnn1Cc1c(C)ncn1-2 | 18
80 | Cc1ncn2c1Cn1ncnc1-c1cc(Br)ccc1-2 | 21
81 | Cc1ncn2c1Cn1ncnc1-c1cc(C(F)F)ccc1-2 | 30
82 | CS(=O)(=O)Nc1ccc2c(c1)-c1ncnn1Cc1c(Cl)ncn1-2 | 5
83 | Cc1ncn2c1Cn1ncnc1-c1cc(C(F)(F)F)ccc1-2 | 29
84 | Brc1ccc2c(c1)-c1ncnn1Cc1c(-c3cccs3)ncn1-2 | 16
85 | Cc1ncn2c1Cn1ncnc1-c1c(F)cccc1-2 | 6
86 | Cn1nccc1-c1ncn2c1Cn1ncnc1-c1cc(Br)ccc1-2 | 22
87 | Cc1ncn2c1Cn1ncnc1-c1cc(OC(F)F)ccc1-2 | 33
88 | Cc1ncn2c1Cn1ncnc1-c1cc(I)ccc1-2 | 29
89 | Cc1ccc2c(c1)-c1ncnn1Cc1c(C)ncn1-2 | 23
90 | Cc1ncn2c1Cn1ncnc1-c1cccc(F)c1-2 | 5
91 | Cc1ncn2c1Cn1ncnc1-c1c(Cl)cccc1-2 | 1
92 | O=C(Nc1ccc2c(c1)-c1ncnn1Cc1c(Cl)ncn1-2)C1CC1 | 5
